Measured values from patent US20250320228A1, “PYRIDO[3,2-D]PYRIMIDINES AS HPK1 INHIBITORS” (Merck Patent GmbH, priority 2022, published 2025).
Counter-ions that a name gives are not always drawn.

How the values were obtained:
[1] = biological target: full-length human HPK1 (MAP4K1) (Homo sapiens (Human), UniProt Q92918); test: HPK1 kinase assay (biochemical, ADP-Glo); conditions: GST-HPK1 3.2 nM, 10 μM ATP, MBP substrate, ADP-Glo; read-out: HPK1 enzymatic IC50
Source text: HPK1 kinase assay (Biochemical assay).
A recombinant fusion protein consisting of full-length human HPK1 (MAP4K1) with an N-terminal Glutatione S-transferase (GST) tag was produced in insect cells Sf21 using the baculovirus expression system. GST-HPK1 protein was purified from cell lysates by glutathione Sepharose affinity chromatography. The assay is run in three continuous steps: 1) the HPK1 enzymatic kinase reaction, 2) an ATP depletion, and 3) the ADP detection, the steps 2 and 3 are performed with ADP-Glo™ Kinase Assay kit from Promega (V9101). Test compounds were prepared by 10-point serial dilution in dimethyl sulfoxide (DMSO) and 100 nL of each dilution was spotted onto a 384-well Optiplate (Perkin Elmer and Cat #6007299) by Labcyte Echo. 5 μL kinase reaction buffer (0.02% Brij-35, 2 mM DTT, 50 mM HEPES pH 7.5, MgCl2 10 mM, BSA 0.01% and β-glycerophosphate 12.5 mM) containing HPK1 (3.2 nM) enzyme was transferred to each well and incubated for 15 minutes at room temperature at 60% humidity. The enzymatic reaction was started by adding 5 μl of Start-Mix (10 μM ATP and 3.235 μM MBP). After 120 minutes, the reaction was stopped by adding 5 μL of ADP-Glo reagent (Promega, V9101) and incubating for 40 min. in the dark at 23° C. To determine the level of ADP, 10 μl ADP-Glo Detection solution was added and incubated for 1 hour at 23° C. in the dark. The plate was transferred to a Perkin Elmer EnVision (2104 Multilabel Reader) for luminescence detection and percent inhibition activity and IC50 value were determined using Genedata Screener.

HPK1 pSLP76 (Ser376) = test: Cellular assay phospho-SLP-76 (Ser376); format: cell-based, human; conditions: SLP76 Ser376 phosphorylation after αCD3/αCD28 stimulation; Jurkat (human) or EL-4 (mouse) cells, table does not say which; read-out: HPK1 pSLP76 IC50
Description: Cellular Assay—Phospho-SLP-76 (Ser376).
Inhibition of HPK1 enzymatic activity in cells was determined by detection of SLP76 phosphorylation at Ser376 residue in lysate from Jurkat (human) and EL-4 (mouse) cells. Jurkat and EL-4 cells express both HPK1 and SLP76 naturally. All cells were cultured in RPMI 1640 media containing 10% heat inactivated fetal bovine serum (FBS) and 1× Penicillin-Streptomycin. In either Jurkat or El-4 assay, cells were pre-incubated with test compounds prior to T cell stimulation by respective αCD3/αCD28 Dynabeads™. For detection, plates were read on the Envision and percent inhibition and IC50 were determined by Smart fit in Genedata Analyzer.
For Jurkat cells: 35 μL cell suspension were dispensed at a density of 30,000 cells/well in 384-well plates containing HBSS (Gibco, 14025076)+0.1% BSA). 10-point logarithmic serial dilution of test compounds in DMSO were prepared by a Hamilton automated liquid handling robot and 35 nL was transferred into each well by an Echo liquid handler. After 60 min. pre-incubation, the cells were stimulated by adding 5 μL human T activator αCD3/αCD28 Dynabeads™ (Gibco, 11132D) at 1.2×107 beads/ml for 15 minutes at 37° C. Detection of Ser376 phosphorylation status was accomplished by first adding 10 μL of 5× AlphaLISA lysis buffer (Perkin Elmer, ALSU-PSLP-A500) to each well of the cell plate using a Multidrop Combi (5840300), followed by 20 minutes shaking. 10 μL cell lysate from each treatment were then transferred to a white 384-well plate (Corning 3572) and incubated with AlphaLISA acceptor beads for one hour (AlphaLISA SureFire Ultra p-SLP76 (Ser376), Perkin Elmer, ALSU-PSLP-A500), and donor beads for additional 2 hours at room temperature in the dark. […]

Chain of full-length human HPK1 (MAP4K1) (Q92918 whole entry): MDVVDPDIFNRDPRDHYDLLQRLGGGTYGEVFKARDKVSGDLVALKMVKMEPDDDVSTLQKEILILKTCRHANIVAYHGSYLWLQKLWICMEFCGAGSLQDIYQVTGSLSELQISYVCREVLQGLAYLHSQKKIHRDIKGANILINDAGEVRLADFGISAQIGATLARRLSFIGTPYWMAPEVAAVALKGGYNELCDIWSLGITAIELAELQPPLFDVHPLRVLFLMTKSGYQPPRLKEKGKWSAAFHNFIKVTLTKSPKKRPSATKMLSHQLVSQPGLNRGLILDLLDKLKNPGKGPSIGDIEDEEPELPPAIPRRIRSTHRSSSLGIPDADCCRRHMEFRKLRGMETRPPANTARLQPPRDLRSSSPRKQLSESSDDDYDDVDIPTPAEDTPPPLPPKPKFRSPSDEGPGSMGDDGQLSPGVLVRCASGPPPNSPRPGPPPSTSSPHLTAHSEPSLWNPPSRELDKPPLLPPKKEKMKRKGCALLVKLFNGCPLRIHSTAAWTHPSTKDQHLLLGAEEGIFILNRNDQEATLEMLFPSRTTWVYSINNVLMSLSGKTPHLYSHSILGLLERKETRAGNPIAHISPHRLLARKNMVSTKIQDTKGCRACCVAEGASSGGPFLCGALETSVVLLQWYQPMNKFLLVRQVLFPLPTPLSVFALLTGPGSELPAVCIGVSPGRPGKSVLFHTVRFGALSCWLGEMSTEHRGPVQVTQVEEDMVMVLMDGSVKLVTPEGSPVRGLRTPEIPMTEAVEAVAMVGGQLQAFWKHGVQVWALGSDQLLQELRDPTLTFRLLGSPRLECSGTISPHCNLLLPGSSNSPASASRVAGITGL

`NCCNc1ncnc2c(C(N)=O)cc(-c3ccc(CN4CCOCC4)cc3)nc12` [Example 23, 4-((2-aminoethyl)amino)-6-(4-(morpholinomethyl)phenyl)pyrido[3,2-d]pyrimidine-8-carboxamide] gave an IC50 [1] of under 100 nM.
With `NC(=O)c1cc(-c2ccc(CN3CCOCC3)cc2)nc2c(N[C@@]3(c4ccccc4)CCCNC3)ncnc12` [Example 18] the IC50 [1] was 100 to 1000 nM and the IC50 (HPK1 pSLP76 (Ser376)) was over 1000 nM.
`NC(=O)c1cc(-c2cnn(C(F)F)c2)nc2c(N[C@H]3CCCNC3)ncnc12` [Example 77, 6-[1-(difluoromethyl)-1H-pyrazol-4-yl]-4-{[(3S)-piperidin-3-yl]amino}pyrido[3,2-d]pyrimidine-8-carboxamide] showed an IC50 [1] of under 100 nM.
Work on `NC(=O)c1cc(C=C2CCOCC2)nc2c(N[C@H]3CCCNC3)ncnc12` [Example 85, 6-[(oxan-4-ylidene)methyl]-4-{[(3S)-piperidin-3-yl]amino}pyrido[3,2-d]pyrimidine-8-carboxamide] yielded an IC50 [1] of over 1000 nM.
In the case of `NC(=O)c1cc(-c2cnn(C3CC3)c2)nc2c(N[C@@H]3CNC[C@@H](F)C3)ncnc12` [Example 36, 6-(1-cyclopropyl-1H-pyrazol-4-yl)-4-(((3S,5S)-5-fluoropiperidin-3-yl)amino)pyrido[3,2-d]pyrimidine-8-carboxamide], the IC50 [1] is reported as under 100 nM and the IC50 (HPK1 pSLP76 (Ser376)) is reported as 500 to 1000 nM.
`COC(C)(C)COc1ccc(-c2cc(C(N)=O)c3ncnc(N[C@H]4CCCNC4)c3n2)cc1` [Example 61, 6-[4-(2-methoxy-2-methylpropoxy)phenyl]-4-[(3S)-piperidin-3-ylamino]pyrido[3,2-d]pyrimidine-8-carboxamide] showed an IC50 [1] of under 100 nM and an IC50 (HPK1 pSLP76 (Ser376)) of under 500 nM.
In the case of `NC(=O)c1cc(-c2ccc(CN3C4COCC3C4)cc2)nc2c(N[C@H]3CCCNC3)ncnc12` [Example 67, 6-(4-[3-oxa-6-azabicyclo [3.1.1]heptan-6-ylmethyl]phenyl)-4-[(3S)-piperidin-3-ylamino]pyrido[3,2-d]pyrimidine-8-carboxamide], the IC50 [1] is reported as under 100 nM and the IC50 (HPK1 pSLP76 (Ser376)) is reported as over 1000 nM.
For `CC(=O)c1ccc(-c2cc(C(N)=O)c3ncnc(N[C@@H]4CNC[C@@H](F)C4)c3n2)s1` [Example 5, 6-(5-acetylthiophen-2-yl)-4-(((3S,5S)-5-fluoropiperidin-3-yl)amino)pyrido[3,2-d]pyrimidine-8-carboxamide], the IC50 [1] was under 100 nM and the IC50 (HPK1 pSLP76 (Ser376)) was under 500 nM.
For `Cc1cc(-c2cc(C(N)=O)c3ncnc(N[C@@H]4CNC[C@@H](F)C4)c3n2)sn1` [Example 6, 4-{[(3S,5S)-5-fluoropiperidin-3-yl]amino}-6-(3-methyl-1,2-thiazol-5-yl)pyrido[3,2-d]pyrimidine-8-carboxamide], the IC50 [1] was under 100 nM.
`NC(=O)c1cc(-c2cccnc2C(F)(F)F)nc2c(N[C@H]3CCCNC3)ncnc12` [Example 87, 4-{[(3S)-piperidin-3-yl]amino}-6-[2-(trifluoromethyl)pyridin-3-yl]pyrido[3,2-d]pyrimidine-8-carboxamide] gave an IC50 [1] of 100 to 1000 nM.
In the case of `NC(=O)c1cc(CC2CCOCC2)nc2c(N[C@H]3CCCNC3)ncnc12` [Example 88, 6-[(oxan-4-yl)methyl]-4-{[(3S)-piperidin-3-yl]amino}pyrido[3,2-d]pyrimidine-8-carboxamide], the IC50 [1] is reported as over 1000 nM.
Compound `C[C@@H]1CN(Cc2ccc(-c3cc(C(N)=O)c4ncnc(N[C@H]5CCCNC5)c4n3)cc2)CCO1` [Example 69, 6-(4-[[(2R)-2-methylmorpholin-4-yl]methyl]phenyl)-4-[(3S)-piperidin-3-ylamino]pyrido[3,2-d]pyrimidine-8-carboxamide dihydrochloride] has an IC50 [1] of under 100 nM and an IC50 (HPK1 pSLP76 (Ser376)) of over 1000 nM.
`N#Cc1c(-c2cc(C(N)=O)c3ncnc(N[C@@H]4CNC[C@@H](F)C4)c3n2)ccc2ncccc12` [Example 2, 6-(5-cyanoquinolin-6-yl)-4-{[(3S,5S)-5-fluoropiperidin-3-yl]amino}pyrido[3,2-d]pyrimidine-8-carboxamide] gave an IC50 [1] of under 100 nM.
Compound `NC(=O)c1cc(-c2ccc(CN3CC[C@H](F)C3)cc2)nc2c(N[C@H]3CCCNC3)ncnc12` [Example 60, 6-(4-[[(3S)-3-fluoropyrrolidin-1-yl]methyl]phenyl)-4-[(3S)-piperidin-3-ylamino]pyrido[3,2-d]pyrimidine-8-carboxamide] has an IC50 [1] of under 100 nM.
For `NC(=O)c1cc(C=C2CCOC2)nc2c(N[C@H]3CCCNC3)ncnc12` (stereo in doubt) [Example 80, 6-{[(3Z)-oxolan-3-ylidene]methyl}-4-{[(3S)-piperidin-3-yl]amino}pyrido[3,2-d]pyrimidine-8-carboxamide], the IC50 [1] was 100 to 1000 nM.
In the case of `COc1ccc(-c2cc(C(N)=O)c3ncnc(N[C@@H]4CNCC(F)(F)C4)c3n2)cc1` [Example 11, (S)-4-((5,5-difluoropiperidin-3-yl)amino)-6-(4-methoxyphenyl)pyrido[3,2-d]pyrimidine-8-carboxamide], the IC50 [1] is reported as 100 to 1000 nM.
Work on `NC(=O)c1cc(-c2ccc(CN3CCOCC3)cc2)nc2c(N[C@H]3CCCCNC3)ncnc12` [Example 21] yielded an IC50 [1] of 100 to 1000 nM.
`NC(=O)c1cc(-c2ccc(CN3CCOC[C@H]3C(F)(F)F)cc2)nc2c(N[C@H]3CCCNC3)ncnc12` [Example 15] gave an IC50 (HPK1 pSLP76 (Ser376)) of under 500 nM.
Compound `CN1CCc2cc(-c3cc(C(N)=O)c4ncnc(N[C@H]5CCCNC5)c4n3)nn2CC1=O` [Example 45, (S)-6-(6-methyl-7-oxo-5,6,7,8-tetrahydro-4H-pyrazolo[1,5-d][1,4]diazepin-2-yl)-4-(piperidin-3-ylamino)pyrido[3,2-d]pyrimidine-8-carboxamide] has an IC50 (HPK1 pSLP76 (Ser376)) of over 1000 nM.
Work on `COCCn1cc(-c2cc(C(N)=O)c3ncnc(N[C@H]4CCCNC4)c3n2)cn1` [Example 19, (S)-6-(1-(2-methoxyethyl)-1H-pyrazol-4-yl)-4-(piperidin-3-ylamino)pyrido[3,2-d]pyrimidine-8-carboxamide] yielded an IC50 [1] of under 100 nM.
`CN1CC=C(c2cc(C(N)=O)c3ncnc(N[C@H]4CCCNC4)c3n2)CC1` [Example 73, 6-(1-methyl-1,2,3,6-tetrahydropyridin-4-yl)-4-{[(3S)-piperidin-3-yl]amino}pyrido[3,2-d]pyrimidine-8-carboxamide] gave an IC50 [1] of over 1000 nM.
For `N#Cc1cc(C(F)F)ccc1-c1cc(C(N)=O)c2ncnc(N[C@@H]3CNCC(F)(F)C3)c2n1` [Example 10, (S)-6-(2-cyano-4-(difluoromethyl)phenyl)-4-((5,5-difluoropiperidin-3-yl)amino)pyrido[3,2-d]pyrimidine-8-carboxamide], the IC50 [1] was 100 to 1000 nM.
`NC(=O)c1cc(CC2CCOC2)nc2c(N[C@H]3CCCNC3)ncnc12` (stereo partly drawn) [Example 84, 6-[(oxolan-3-yl)methyl]-4-{[(3S)-piperidin-3-yl]amino}pyrido[3,2-d]pyrimidine-8-carboxamide] showed an IC50 [1] of over 1000 nM.
`CC(C)n1cc(-c2cc(C(N)=O)c3ncnc(N[C@H]4CCCNC4)c3n2)cn1` [Example 78, 4-{[(3S)-piperidin-3-yl]amino}-6-[1-(propan-2-yl)-1H-pyrazol-4-yl]pyrido[3,2-d]pyrimidine-8-carboxamide] was tested, and the IC50 [1] was under 100 nM.
In the case of `N#C[C@H]1COCCN1Cc1ccc(-c2cc(C(N)=O)c3ncnc(N[C@H]4CCCNC4)c3n2)cc1` [Example 14], the IC50 (HPK1 pSLP76 (Ser376)) is reported as over 1000 nM.
`NC(=O)c1cc(-c2cc(F)c(OCC3(O)CCC3)c(F)c2)nc2c(N[C@H]3CCCNC3)ncnc12` [Example 39, (S)-6-(3,5-difluoro-4-((1-hydroxycyclobutyl)methoxy)phenyl)-4-(piperidin-3-ylamino)pyrido[3,2-d]pyrimidine-8-carboxamide] was tested, and the IC50 (HPK1 pSLP76 (Ser376)) was under 500 nM.
With `NC(=O)c1cc(-c2ccc(CN3CCOCC3)cc2)nc2c(NC34CNCC3C4)ncnc12` (stereo not drawn) [Example 20] the IC50 (HPK1 pSLP76 (Ser376)) was over 1000 nM.
